In patent US11447460B2, “Compounds and compositions for treating conditions associated with NLRP activity” (Novartis AG, priority 2016, dated 2022) one finds IC50 data, which are given here for 27 molecules.

One experiment deals with IL-1β production in PMA-differentiated THP-1 cells. Briefly: IL-1β production in PMA-differentiated THP-1 cells stimulated with gramicidin (hTHP-1 assay, 2% bovine serum; Bioassays 1 and 2). It counts as cell-based, human. Particulars: Homo sapiens, THP-1; hTHP-1 assay containing 2% bovine serum; Table 12, by Example #; read-out: Average IC50 of compounds in hTHP-1 assay. How it is done:
IL-1β Production in PMA-Differentiated THP-1 Cells Stimulated with Gramicidin.
Cell culture-THP-1 cells were purchased from the American Type Culture Collection and sub-cultured according to instructions from the supplier. Prior to experiments, cells were cultured in RPMI 1640 containing 10% heat inactivated FBS, penicillin (100 units/ml) and streptomycin (100 μg/ml), and maintained in log phase prior to experimental setup. Prior to the experiment THP-1 were treated with PMA (Phorbol 12-myristate 13-acetate) (10 μg/ml) for 24 hours. The day of the experiment the media was removed and attaching cells were treated with trypsin for 2 minutes, cells were then collected, washed with PBS (phosphate buffer saline), spin down, resuspended in 2% heat inactivated FBS with RPMI at a concentration of 1×10^6 cells/ml, and 100 ul was plated in a 96 well plate. Cells were incubated with compounds for 1 hours and then stimulated with Gramicidin (5 μM) (Enzo) for 2 hours. Cell free supernatant was collected and the production of IL-1β was evaluated by ELISA. Compounds were dissolved in dimethyl sulfoxide (DMSO) and added to the culture medium to achieve desired concentration (e.g. 100, 30, 10, 3, 1, 0.3 or 0.1 μM). A vehicle only control was run concurrently with each experiment. Final DMSO concentration was 1%.
THP-1 cells were purchased from the American Type Culture Collection and sub-cultured according to instructions from the supplier. Prior to experiments, cells were cultured in complete RPMI 1640 (containing 10% heat inactivated FBS, penicillin (100 units/ml) and streptomycin (100 μg/ml)), and maintained in log phase prior to experimental setup. Prior to the experiment THP-1 were treated with PMA (Phorbol 12-myristate 13-acetate) (20 ng/ml) for 16-18 hours. On the day of the experiment the media was removed and adherent cells were detached with trypsin for 5 minutes. Cells were then harvested, washed with complete RPMI 1640, spun down, resuspended in RPMI 1640 (containing 2% heat inactivated FBS, penicillin (100 units/ml) and streptomycin (100 μg/ml). The cells were plated in a 384-well plate at a density of 50,000 cells/well (final assay volume 50 μl). Compounds were dissolved in dimethyl sulfoxide (DMSO) and added to the culture medium to achieve desired concentration (e.g. 100, 33, 11, 3.7, 1.2, 0.41, 0.14, 0.046, 0.015, 0.0051, 0.0017 μM). Cells were incubated with compounds for 1 hour and then stimulated with gramicidin (5 μM) (Enzo) for 2 hours. Cell free supernatant was collected and the production of IL-10 was evaluated by HTRF (cisbio). A vehicle only control was run concurrently with each experiment. Final DMSO concentration was 0.38%.
Compounds tested with protocols 1 and 2 provided IC50 values that are within the variability of the assay.
Tables 12 and 13 show the biological activity of compounds in hTHP-1 assay containing 2% bovine serum: <1 μM=“++++”; ≥1 and <5 μM=“+++”; ≥5 and <15 μM=“++”; ≥15 and <60 μM=“+”.
As a reminder, the IC50 is the midpoint of a concentration-inhibition curve. Regarding `CC(C)(O)c1coc(S(=O)(=O)NC(=O)Cc2c3c(cc4c2CCC4)CCC3)c1` [Example 1, 2-(1,2,3,5,6,7-Hexahydros-indacen-4-yl)-N-(4-(2-hydroxypropan-2-yl)furan-2-ylsulfonyl)acetamide], the half-inhibitory concentration (IC50) lay within 5 to 15 µM. With `CC(C)c1cccc(C(C)C)c1CC(=O)NS(=O)(=O)c1ncc(C(C)(C)O)s1` [Example 2, 2-(2,6-Diisopropylphenyl)-N-(5-(2-hydroxypropan-2-yl)thiazol-2-ylsulfonyl)acetamide], the 50% inhibitory concentration (IC50) was 1 to 5 µM. Regarding `CC(C)(O)c1cnc(S(=O)(=O)NC(=O)Cc2c3c(cc4c2CCC4)CCC3)s1` [Example 3, 2-(1,2,3,5,6,7-Hexahydros-indacen-4-yl)-N-(5-(2-hydroxypropan-2-yl)thiazol-2-ylsulfonyl)acetamide], the half-inhibitory concentration (IC50) lay in the range of 15 to 60 µM. Take `CC(C)c1cc(F)cc(C(C)C)c1CC(=O)NS(=O)(=O)c1ncc(C(C)(C)CO)s1` [Example 4, 2-(4-Fluoro-2,6-diisopropylphenyl)-N-(5-(1-hydroxy-2-methylpropan-2-yl)thiazol-2-ylsulfonyl)acetamide]: the half-inhibitory concentration (IC50) lay within 5 to 15 µM.

As to `CC(C)(O)c1cnc(S(=O)(=O)NC(=O)Cc2c3c(c(Cl)c4c2CCC4)CCC3)s1` [Example 5, 2-(8-Chloro-1,2,3,5,6,7-hexahydros-indacen-4-yl)-N-(5-(2-hydroxypropan-2-yl)thiazol-2-ylsulfonyl)acetamide], the half-inhibitory concentration (IC50) is 15 to 60 µM. `CC(C)c1cc(C#N)cc(C(C)C)c1CC(=O)NS(=O)(=O)c1ncc(C(C)(C)O)s1` [Example 6, 2-(4-cyano-2,6-diisopropylphenyl)-N-(5-(2-hydroxypropan-2-yl)thiazol-2-ylsulfonyl)acetamide]: the IC50 lay within 1 to 5 µM. For `CC(C)c1cccc(C(C)C)c1CC(=O)NS(=O)(=O)c1cc(C(C)(C)O)cs1` [Example 8, 2-(2,6-diisopropylphenyl)-N-(4-(2-hydroxypropan-2-yl)thiophen-2-ylsulfonyl)acetamide], the 50% inhibitory concentration (IC50) was under 1 µM.

Turning to `CC(C)c1cc(F)cc(C(C)C)c1CC(=O)NS(=O)(=O)c1cc(C(C)(C)O)cs1` [Example 9, 2-(4-fluoro-2,6-diisopropylphenyl)-N-(4-(2-hydroxypropan-2-yl)thiophen-2-ylsulfonyl)acetamide], the IC50 is under 1 µM. Take `CC(C)c1cc(C#N)cc(C(C)C)c1CC(=O)NS(=O)(=O)c1cc(C(C)(C)O)cs1` [Example 10, 2-(4-cyano-2,6-diisopropylphenyl)-N-(4-(2-hydroxypropan-2-yl)thiophen-2-ylsulfonyl)acetamide]: the IC50 was under 1 µM. The same measure, in the same setting: next, `CC(C)c1ccc(F)c(C(C)C)c1CC(=O)NS(=O)(=O)c1cc(C(C)(C)O)cs1` [Example 11, 2-(3-fluoro-2,6-diisopropylphenyl)-N-(4-(2-hydroxypropan-2-yl)thiophen-2-ylsulfonyl)acetamide]: under 1 µM.

With `CC(C)c1c(F)c(Cl)c(F)c(C(C)C)c1CC(=O)NS(=O)(=O)c1cc(C(C)(C)O)cs1` [Example 12, 2-(4-chloro-3,5-difluoro-2,6-diisopropylphenyl)-N-(4-(2-hydroxypropan-2-yl)thiophen-2-ylsulfonyl)acetamide], the half-inhibitory concentration (IC50) is under 1 µM. On to `CC(C)c1cc(F)cc(C(C)C)c1CC(=O)NS(=O)(=O)c1ccc(C(C)(C)O)s1` [Example 13, 2-(4-fluoro-2,6-diisopropylphenyl)-N-(5-(2-hydroxypropan-2-yl)thiophen-2-ylsulfonyl)acetamide], for which the IC50 is 1 to 5 µM.

In the case of `CC(C)c1cccc(C(C)C)c1CC(=O)NS(=O)(=O)c1cc(C2(O)CC2)cs1` [Example 14, 2-(2,6-diisopropylphenyl)-N-(4-(1-hydroxycyclopropyl)thiophen-2-ylsulfonyl)acetamide], the IC50 was 1 to 5 µM. On to `CC(C)c1cc(F)cc(C(C)C)c1CC(=O)NS(=O)(=O)c1cc(C2(O)CC2)cs1` [Example 15, 2-(4-fluoro-2,6-diisopropylphenyl)-N-(4-(1-hydroxycyclopropyl)thiophen-2-ylsulfonyl)acetamide], for which the half-maximal inhibitory concentration (IC50) is 1 to 5 µM. Take `CC(C)c1cc(C#N)cc(C(C)C)c1CC(=O)NS(=O)(=O)c1cc(C2(O)CC2)cs1` [Example 16, 2-(4-cyano-2,6-diisopropylphenyl)-N-(4-(1-hydroxycyclopropyl)thiophen-2-ylsulfonyl)acetamide]: the 50% inhibitory concentration (IC50) was under 1 µM. Consider `Cc1sc(S(=O)(=O)NC(=O)Cc2c(C(C)C)cc(F)cc2C(C)C)cc1C(C)(C)O` [Example 17, 2-(4-fluoro-2,6-diisopropylphenyl)-N-(4-(2-hydroxypropan-2-yl)-5-methylthiophen-2-ylsulfonyl)acetamide], for which the IC50 fell in the range of 1 to 5 µM. In the case of `Cc1oc(S(=O)(=O)NC(=O)Cc2c(C(C)C)cc(F)cc2C(C)C)cc1C(C)(C)O` [Example 18, 2-(4-fluoro-2,6-diisopropylphenyl)-N-(4-(2-hydroxypropan-2-yl)-5-methylfuran-2-ylsulfonyl)acetamide], the IC50 lay within 1 to 5 µM.

As for `Cc1c(C(C)(C)O)csc1S(=O)(=O)NC(=O)Cc1c(C(C)C)cc(F)cc1C(C)C` [Example 19, 2-(4-fluoro-2,6-diisopropylphenyl)-N-(4-(2-hydroxypropan-2-yl)-3-methylthiophen-2-ylsulfonyl)acetamide], the IC50 lay within 1 to 5 µM. On the same count and under the same terms, to `CC(C)c1c(F)c(Cl)c(F)c(C(C)C)c1CC(=O)NS(=O)(=O)c1cc(C(C)(C)O)co1` [Example 20, 2-(4-chloro-3,5-difluoro-2,6-diisopropylphenyl)-N-(4-(2-hydroxypropan-2-yl)furan-2-ylsulfonyl)acetamide] belongs under 1 µM; to `CC(C)c1cccc(C(C)C)c1CC(=O)NS(=O)(=O)c1ccc(C(C)(C)O)cc1` [Example 21, 2-(2,6-diisopropylphenyl)-N-(4-(2-hydroxypropan-2-yl)phenylsulfonyl)acetamide], 1 to 5 µM.

For the molecule `CC(C)c1cccc(C(C)C)c1CC(=O)NS(=O)(=O)c1cc(-c2ccncc2)cc(C(C)(C)O)c1` [Example 22, 2-(2,6-diisopropylphenyl)-N-(3-(2-hydroxypropan-2-yl)-5-(pyridin-4-yl)phenylsulfonyl)acetamide], the half-inhibitory concentration (IC50) was in the range of 15 to 60 µM.

As to `CC(C)c1cccc(C(C)C)c1CC(=O)NS(=O)(=O)c1cc(-c2ccccc2)cc(C(C)(C)O)c1` [Example 23, 2-(2,6-diisopropylphenyl)-N-(5-(2-hydroxypropan-2-yl)biphenyl-3-ylsulfonyl)acetamide], the IC50 fell in the range of 1 to 5 µM. Turning to `CC(C)c1cccc(C(C)C)c1CC(=O)NS(=O)(=O)c1cc(C(C)(C)O)cc(C(C)(C)O)c1` [Example 24, N-(3,5-bis(2-hydroxypropan-2-yl)phenylsulfonyl)-2-(2,6-diisopropylphenyl)acetamide], the half-inhibitory concentration (IC50) lay within 15 to 60 µM.

Staying with this experiment, now noted: Homo sapiens, THP-1; hTHP-1 assay containing 2% bovine serum; Table 13, by Final Target Number; read-out: Average IC50 of compounds in hTHP-1 assay.
As for `CC(C)c1cc(F)cc(C(C)C)c1CC(=O)NS(=O)(=O)c1ncc(CN(C)C)s1` [Compound 213], the 50% inhibitory concentration (IC50) fell in the range of 5 to 15 µM. On the same count and under the same terms, to `CC(C)c1cc(F)cc(C(C)C)c1CC(=O)NS(=O)(=O)c1ccc(CN(C)C)cc1` [Compound 214] belongs under 1 µM; to `CC(C)c1cc(F)cc(C(C)C)c1CC(=O)NS(=O)(=O)c1cccc(CN(C)C)c1` [Compound 215], 5 to 15 µM.

The experiment is the same for the next values; noted with them: hTHP-1 assay containing 2% bovine serum; Table 12, by Example #; read-out: Average IC50 of compounds in hTHP-1 assay.
In the case of `CC(C)(O)c1csc(S(=O)(=O)NC(=O)Cc2c3c(cc4c2CCC4)CCC3)c1` [Example 7, 2-(1,2,3,5,6,7-hexahydro-sindacen-4-yl)-N-(4-(2-hydroxypropan-2-yl)thiophen-2-ylsulfonyl)acetamide], the IC50 fell in the range of 5 to 15 µM.
